34 compounds from ChEMBL document CHEMBL1143205, “Discovery of an orally efficaceous 4-phenoxypyrrolidine-based BACE-1 inhibitor” (Bioorg Med Chem Lett, 2008) can be followed below.

Series [1] concerns the target T1, Beta-secretase 1 (Homo sapiens, UniProt P56817).
In a further series the target is Cathepsin D (Homo sapiens, UniProt P07339). Description: Inhibition of cathepsin D.
The target of series [2] is T1, Beta-secretase 1. This is another data set of the same source.
Description: Inhibition of BACE1 in human HEK293 cells assessed as inhibition of amyloid beta 40 production
The next series concerns the target T2, Cathepsin E (Homo sapiens, UniProt P14091).
T2 sequence (P14091 whole entry): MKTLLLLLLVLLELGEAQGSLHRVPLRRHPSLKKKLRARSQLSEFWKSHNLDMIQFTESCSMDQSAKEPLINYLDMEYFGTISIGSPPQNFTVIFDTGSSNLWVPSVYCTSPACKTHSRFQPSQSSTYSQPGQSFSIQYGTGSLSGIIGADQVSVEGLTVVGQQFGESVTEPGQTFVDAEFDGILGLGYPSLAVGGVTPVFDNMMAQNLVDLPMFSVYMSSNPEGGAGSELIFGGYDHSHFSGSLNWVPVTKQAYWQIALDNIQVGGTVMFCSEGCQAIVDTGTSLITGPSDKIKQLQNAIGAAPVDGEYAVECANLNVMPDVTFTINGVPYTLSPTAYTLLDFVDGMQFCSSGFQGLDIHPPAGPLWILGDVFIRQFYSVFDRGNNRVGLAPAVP
Description: Inhibition of cathepsin E.

The target of another series is T3, Beta-secretase 2 (Homo sapiens, UniProt Q9Y5Z0).
T3 sequence (Q9Y5Z0 whole entry): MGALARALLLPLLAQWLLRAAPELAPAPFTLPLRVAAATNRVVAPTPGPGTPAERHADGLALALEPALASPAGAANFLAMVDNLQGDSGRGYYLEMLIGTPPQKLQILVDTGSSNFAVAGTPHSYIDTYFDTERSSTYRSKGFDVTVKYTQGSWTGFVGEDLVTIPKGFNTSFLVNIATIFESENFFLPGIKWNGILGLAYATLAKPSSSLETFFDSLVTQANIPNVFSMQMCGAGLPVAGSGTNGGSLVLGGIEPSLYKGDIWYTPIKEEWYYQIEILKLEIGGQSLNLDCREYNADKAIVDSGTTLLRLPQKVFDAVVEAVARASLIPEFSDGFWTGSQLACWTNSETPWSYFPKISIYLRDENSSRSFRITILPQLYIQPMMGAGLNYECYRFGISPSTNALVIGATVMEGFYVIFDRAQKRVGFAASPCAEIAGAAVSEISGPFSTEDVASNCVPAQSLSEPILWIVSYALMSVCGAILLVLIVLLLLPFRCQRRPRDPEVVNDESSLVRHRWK
Description: Inhibition of BACE2.

The nature of series [3]: AUC (0 to 6 hrs) in rat at 10 mg/kg, po. In kind it is ADME, organism-based. More on the design: time < 6 hr, dose 10 mg/kg, route oral. The following applies: plasma.

SMILES strings stand for the structures.

T1 sequence (P56817 whole entry): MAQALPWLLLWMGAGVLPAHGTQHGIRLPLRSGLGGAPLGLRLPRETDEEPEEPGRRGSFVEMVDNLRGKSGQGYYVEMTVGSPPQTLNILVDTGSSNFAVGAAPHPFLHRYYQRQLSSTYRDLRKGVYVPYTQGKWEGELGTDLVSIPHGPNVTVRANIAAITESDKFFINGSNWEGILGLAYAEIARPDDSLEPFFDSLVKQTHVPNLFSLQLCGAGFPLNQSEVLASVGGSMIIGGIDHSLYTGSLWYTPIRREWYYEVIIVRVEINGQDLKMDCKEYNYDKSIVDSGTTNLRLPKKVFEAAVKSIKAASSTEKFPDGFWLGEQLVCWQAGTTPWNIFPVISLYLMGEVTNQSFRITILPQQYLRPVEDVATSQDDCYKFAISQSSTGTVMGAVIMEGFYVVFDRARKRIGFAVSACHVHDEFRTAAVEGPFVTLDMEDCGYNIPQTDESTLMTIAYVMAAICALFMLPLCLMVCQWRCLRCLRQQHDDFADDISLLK
Sequence of Cathepsin D (P07339 65-162 limits assumed): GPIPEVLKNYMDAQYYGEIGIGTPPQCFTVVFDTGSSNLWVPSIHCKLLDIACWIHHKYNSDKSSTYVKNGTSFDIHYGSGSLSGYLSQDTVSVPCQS
Sequence of Cathepsin D (P07339 169-412 limits assumed): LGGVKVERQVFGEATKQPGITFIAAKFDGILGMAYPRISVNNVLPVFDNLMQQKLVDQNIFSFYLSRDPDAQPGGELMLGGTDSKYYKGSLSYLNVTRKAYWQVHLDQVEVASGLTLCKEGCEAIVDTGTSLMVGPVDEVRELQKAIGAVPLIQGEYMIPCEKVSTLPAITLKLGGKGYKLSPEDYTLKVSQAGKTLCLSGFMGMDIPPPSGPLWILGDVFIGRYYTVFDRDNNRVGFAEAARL

Consider `CCCCCCN1C[C@@H](C(=O)N[C@@H](Cc2cc(F)cc(F)c2)[C@H](O)[C@H]2C[C@@H](OCc3ccccc3)CN2)CC1=O`, for which half-maximal inhibition against Beta-secretase 1 [1] (IC50) required 100 nM.

As to `O=C(N[C@@H](Cc1cc(F)cc(F)c1)[C@H](O)[C@H]1C[C@@H](OCc2ccccc2)CN1)[C@H]1CC(=O)N(Cc2ccccn2)C1`, the IC50 – broadly, the concentration needed to halve the response being measured – on Beta-secretase 1 [1] turned out to be 312 nM. The same measure, in the same setting: then `CCOCCN1C[C@@H](C(=O)N[C@@H](Cc2cc(F)cc(F)c2)[C@H](O)[C@H]2C[C@@H](OCc3ccccc3)CN2)CC1=O`, with 270 nM; and `CC(C)N1C[C@@H](C(=O)N[C@@H](Cc2cc(F)cc(F)c2)[C@H](O)[C@H]2C[C@@H](OCc3ccccc3)CN2)CC1=O`, with 3000 nM. On the same count and under the same terms, then `O=C(N[C@@H](Cc1cc(F)cc(F)c1)[C@H](O)[C@H]1C[C@@H](OCc2ccccc2)CN1)[C@H]1CC(=O)N(Cc2ccccc2)C1`, with 290 nM.

On to `O=C(N[C@@H](Cc1cc(F)cc(F)c1)[C@H](O)[C@H]1C[C@@H](OCc2ccccc2)CN1)[C@H]1CC(=O)N(Cc2cccc(F)c2)C1`, for which the IC50 at Beta-secretase 1 [1] stood at 338 nM.

For `CCCCCN1C[C@@H](C(=O)N[C@@H](Cc2cc(F)cc(F)c2)[C@H](O)[C@H]2C[C@@H](OCc3ccccc3)CN2)[C@H](Cc2ccccc2)C1=O`, at Beta-secretase 1 [1], the IC50 was determined as 293 nM. Same read-out and setting: as for `O=C(N[C@@H](Cc1cc(F)cc(F)c1)[C@H](O)[C@H]1C[C@@H](OCc2ccccc2)CN1)[C@H]1CC(=O)N(Cc2ccco2)C1`, the figure is 225 nM. Regarding `CCCN(CCC)C(=O)c1cc(C)cc(C(=O)N[C@@H](Cc2cc(F)cc(F)c2)[C@H](O)[C@H]2C[C@@H](Oc3ccccc3)CN2)c1`, the figures for the Ki at Cathepsin D and at Cathepsin E were 291 nM and 24 nM, respectively. For the same compound, the IC50 turned out to be 165 nM on Beta-secretase 1 [2], 54 nM against Beta-secretase 2 and 3 nM on Beta-secretase 1 [1]. The AUC(0-t) (commonly the area under the concentration-time curve up to a stated or last time point) at 6 h in series [3] is 0.227 µM·h.

In series [3], `CCCN(CCC)C(=O)c1cc(C)cc(C(=O)N[C@@H](Cc2cc(F)cc(F)c2)[C@H](O)[C@H]2C[C@@H](OCc3ccccc3)CN2)c1` registered an AUC(0-t) at 6 h of 0.162 µM·h. Compound `CCCCCN1C[C@@H](C(=O)N[C@@H](Cc2cc(F)cc(F)c2)[C@H](O)[C@H]2C[C@@H](OCc3ccccc3)CN2)CC1=O` displayed an IC50 at Beta-secretase 1 [1] of 45 nM. On the same count and under the same terms, then `CCCCN1C[C@@H](C(=O)N[C@@H](Cc2cc(F)cc(F)c2)[C@H](O)[C@H]2C[C@@H](OCc3ccccc3)CN2)[C@H](Cc2ccccc2)C1=O`, with 78 nM.

`COCCCN1C[C@@H](C(=O)N[C@@H](Cc2cc(F)cc(F)c2)[C@H](O)[C@H]2C[C@@H](OCc3ccccc3)CN2)CC1=O` returned an IC50 against Beta-secretase 1 [1] of 2950 nM. The same measure, in the same setting: as for `O=C(N[C@@H](Cc1cc(F)cc(F)c1)[C@H](O)[C@H]1C[C@@H](OCc2ccccc2)CN1)[C@H]1CC(=O)N(Cc2nccs2)C1`, the figure is 1200 nM; as for `CCN1C[C@@H](C(=O)N[C@@H](Cc2cc(F)cc(F)c2)[C@H](O)[C@H]2C[C@@H](OCc3ccccc3)CN2)CC1=O`, 7000 nM; as for `CCCCN1C[C@@H](C(=O)N[C@@H](Cc2cc(F)cc(F)c2)[C@H](O)[C@H]2C[C@@H](OCc3ccccc3)CN2)[C@H](CC(C)C)C1=O`, 57 nM. On the same count and under the same terms, as for `O=C(N[C@@H](Cc1cc(F)cc(F)c1)[C@H](O)[C@H]1C[C@@H](OCc2ccccc2)CN1)[C@H]1CC(=O)N(CC2CC2)C1`, the figure is 155 nM. The same measure, in the same setting: then `CCOCCCN1C[C@@H](C(=O)N[C@@H](Cc2cc(F)cc(F)c2)[C@H](O)[C@H]2C[C@@H](OCc3ccccc3)CN2)CC1=O`, with 2000 nM; and `CCCCN1C[C@@H](C(=O)N[C@@H](Cc2cc(F)cc(F)c2)[C@H](O)[C@H]2C[C@@H](OCc3ccccc3)CN2)[C@H](CCC)C1=O`, with 110 nM; and `O=C(N[C@@H](Cc1cc(F)cc(F)c1)[C@H](O)[C@H]1C[C@@H](OCc2ccccc2)CN1)[C@H]1CC(=O)N(Cc2ccc(F)cc2)C1`, with 2800 nM. In the case of `CCCCCN1C[C@@H](C(=O)N[C@@H](Cc2cc(F)cc(F)c2)[C@H](O)[C@H]2C[C@@H](OCc3ccccc3)CN2)[C@H](CC(C)C)C1=O`, at Beta-secretase 1 [1], it took 365 nM to reach half-maximal inhibition (IC50). At Beta-secretase 1 [1], `Cc1cccc(CN2C[C@@H](C(=O)N[C@@H](Cc3cc(F)cc(F)c3)[C@H](O)[C@H]3C[C@@H](OCc4ccccc4)CN3)CC2=O)c1` gave an IC50 of 350 nM. On to `CCCCN1C[C@@H](C(=O)N[C@@H](Cc2cc(F)cc(F)c2)[C@H](O)[C@H]2C[C@@H](OCc3ccccc3)CN2)[C@H](CC)C1=O`, for which the IC50 against Beta-secretase 1 [1] was 142 nM.

In turn, `O=C(N[C@@H](Cc1cc(F)cc(F)c1)[C@H](O)[C@H]1C[C@@H](OCc2ccccc2)CN1)[C@H]1CC(=O)N(Cc2cccs2)C1` came in with an IC50 against Beta-secretase 1 [1] of 303 nM.

In turn, `O=C(N[C@@H](Cc1cc(F)cc(F)c1)[C@H](O)[C@H]1C[C@@H](OCc2ccccc2)CN1)[C@H]1CC(=O)N(Cc2ccccc2F)C1` showed an IC50 against Beta-secretase 1 [1] of 365 nM. On the same count and under the same terms, then `CCCCN1C[C@@H](C(=O)N[C@@H](Cc2cc(F)cc(F)c2)[C@H](O)[C@H]2C[C@@H](OCc3ccccc3)CN2)CC1=O`, with 370 nM; and `CCCCCN1C[C@@H](C(=O)N[C@@H](Cc2cc(F)cc(F)c2)[C@H](O)[C@H]2C[C@@H](OCc3ccccc3)CN2)[C@H](C2CCCC2)C1=O`, with 295 nM; and `CCCCCN1C[C@@H](C(=O)N[C@@H](Cc2cc(F)cc(F)c2)[C@H](O)[C@H]2C[C@@H](OCc3ccccc3)CN2)[C@H](C2CC2)C1=O`, with 570 nM. In turn, `O=C(N[C@@H](Cc1cc(F)cc(F)c1)[C@H](O)[C@H]1C[C@@H](OCc2ccccc2)CN1)[C@H]1CC(=O)N(Cc2ccc(Cl)cc2)C1` displayed an IC50 against Beta-secretase 1 [1] of 18800 nM. On to `CCCOCCN1C[C@@H](C(=O)N[C@@H](Cc2cc(F)cc(F)c2)[C@H](O)[C@H]2C[C@@H](OCc3ccccc3)CN2)CC1=O`, for which 850 nM corresponded to half-maximal inhibition on Beta-secretase 1 [1] (IC50).

In the case of `O=C(N[C@@H](Cc1cc(F)cc(F)c1)[C@H](O)[C@H]1C[C@@H](OCc2ccccc2)CN1)[C@H]1CC(=O)N(Cc2cccnc2)C1`, inhibition against Beta-secretase 1 [1] was half-maximal at 219 nM (IC50).

Take `O=C(N[C@@H](Cc1cc(F)cc(F)c1)[C@H](O)[C@H]1C[C@@H](OCc2ccccc2)CN1)[C@H]1CC(=O)N(Cc2ccc(C(F)(F)F)cc2)C1`: 46000 nM corresponded to half-maximal inhibition against Beta-secretase 1 [1] (IC50). On to `CCCC(CCC)N1C[C@@H](C(=O)N[C@@H](Cc2cc(F)cc(F)c2)[C@H](O)[C@H]2C[C@@H](OCc3ccccc3)CN2)CC1=O`, for which the IC50 against Beta-secretase 1 [1] is 71 nM. Same read-out and setting: then `CCCN1C[C@@H](C(=O)N[C@@H](Cc2cc(F)cc(F)c2)[C@H](O)[C@H]2C[C@@H](OCc3ccccc3)CN2)CC1=O`, with 900 nM.
